Test results taken from patent US6235791A, “Use of amines to produce drugs for preventing tumor cell proliferation” (Sanofi-Synthelabo, priority 1996, dated 2001).

Columns and labels:
[1] = system: LCC2 p26-27 (MCF-7LCC2); test: proliferation of mammary epithelial cells, IC50 after 6 days; format: cell-based, human; settings: 6 days of treatment
Method: (§1) Another study was also performed in order to determine the effect of SR 31747 on the in vitro and in vivo growth of mammary and prostate epithelial tumour cells.
(§2) The study consisted in evaluating the potential antitumour activity of SR 31747 on the growth of a variety of cancerous breast epithelial lines. The study is carried out in vitro on cell cultures, as well as in vivo after inoculation of tumoral mammary lines in "nude" athymic mice.
(§3) The cell lines which were used are as follows:
(§4) The hormone-sensitive MCF-7 line originates from a pleural effusion of a breast adenocarcinoma. The antioestrogen-resistant MCF-7LY2 cells were obtained from the MCF-7LCC1 and MCF-7LCC2 lines were developed in nude mice, after inoculation of the MCF-7 cells. The two lines are oestrogen-independent. The MCF-7CC2 cells are also antioestrogen-resistant. The MCF-7AZTD5 line is derived from the MCF-7 line after stable transfection with the H-ras oncogene. The MCF-7AZTD5 cells are antioestrogen-resistant in vitro. All of these lines are maintained on DMEM/F12 (1/1, vol/vol) containing 10% decomplemented foetal calf serum and 16 ng/ml of human insulin. The MCF-7LCC2 line is cultured in the permanent presence of 10^-7 M hydroxytamoxifen. The MDA-MB231 tumoral mammary epithelial cells are oestrogen- and antioestrogen-insensitive. They are cultured in L15 medium supplemented with 10% FCS, 1% essential amino acids and 10 μg/ml of human insulin.
(§5) All the lines are maintained at 37° C. in a humid air/CO2 (95%/5%) atmosphere, except for the MDA-MB231 cells which are cultured in the absence of CO2. THe cell lines are checked regularly free of mycoplasms.
(§6) Table B--Effect of SR 31747 on the proliferation of mammary epithelial cells. Determination of the IC50 after 6 days of treatment--medium changed every 48 hours

[2] = system: human myeloma U266; test: MTT colorimetric proliferation test, 5 days; format: cell-based; settings: U-266, 120 h, read-out: percentage of cell proliferation relative to the untreated control taken as 100%
Method: Among other cells used, the following lines were routinely cultured in RPMI medium supplemented with 10% foetal calf serum (FCS):
The antitumour activity is measured according to the colorimetry method using MTT, 3-(4,5-dimethylthiazole-2,5-diphenyltetrazolium) bromide as described by Mosmann T., Journ. of Im. Methods; 1983, 65, 55.
This colorimetric assay makes it possible to measure quantitatively the antitumour activity of a solution containing a compound used according to the invention.
According to the procedure used, the suspended cells (such as the myeloma cells) are inoculated at 2×10^3 cells/ml in 1 ml wells in defined medium. The adherent cells (such as the MCF-7 cells) are inoculated at 5×10^4 cells/ml in 1 ml wells in RPMI medium+0.5% FCS overnight. The next day, the cell carpet is washed twice and replaced by the defined medium.
The defined medium corresponds to: RPMI+10 μg/ml insulin+10 μg/ml human transferrin.
In order to carry out this test, cells are maintained in the presence of the solution containing a compound used according to the invention for 5 days, and the MTT is then added to the culture medium.
The 5 day period which was selected corresponds to the optimum time for the activity. After culturing for 5 days, the proliferation of the cells is measured by the test described above. The optical density at 570 nm is measured. A blue coloration develops in the wells where the cells are still alive. The intensity of the coloration is proportional to the quantity of live cells.

[3] = system: SN 47 p4 normal cells; test: proliferation of mammary epithelial cells, IC50 after 6 days; format: cell-based; settings: Epithelial cell, 144 h, 6 days of treatment
Method: as §1, §2, §6

[4] = system: tumour cells; test: biochemical and pharmacological studies illustrated above (binding and antiproliferative tests)
Method: The membranes were prepared as follows: 10 MCF-7 cells are homogenized for 10 seconds on a Polytron® in 10 ml of Hepes® buffer pH=7.4 containing: 210 mM D-mannitol, 70 mM sucrose, 1 mM EDTA, 0.3 mM PMSF. The homogenate is centrifuged at 650 xg for 15 minutes and the supernatant is then taken up and centrifuged for 1 at 100,000 xg. The pellet is resuspended in Tris-HCl buffer pH=7.4 at a concentration of 1 mg/ml and stored at-70° C. The total binding is carried out in a 5 ml tube into which the following are introduced:
The non-specific binding is performed by adding 25 μl of 10^-5 M SR 31747 to the above solution (final volume 250 μl) and then incubating for 30 at 25° C. The free and bound fractions are separated by placing 200 μl on a column of 1 ml of Sephadex® LH 20 and the radioactivity is then counted on the first 2 ml obtained by eluting the column with 50 mM Tris buffer ph=7.4.
The 5 day period which was selected corresponds to the optimum time for the activity. After culturing for 5 days, the proliferation of the cells is measured by the test described above. The optical density at 570 nm is measured. […] The intensity of the coloration is proportional to the quantity of live cells.

[5] = system: LY2 p22-23 (MCF-7LY2); test: proliferation of mammary epithelial cells, IC50 after 6 days; format: cell-based; settings: Homo sapiens, Epithelial cell, 144 h; LY2 p22-23, 10% FCS, 6 days of treatment
Method: as §1, §2, §3, §4, §5, §6

[6] = system: MDA MB231 p131; test: as above; format: cell-based; settings: 6 days of treatment
Method: as §1, §2, §3, §4, §5, §6

[7] = system: LCC1 p23-24 (MCF-7LCC1); test: as above; format: cell-based; settings: Homo sapiens, Epithelial cell, 144 h, 6 days of treatment
Method: as §1, §2, §3, §4, §5, §6

[8] = system: MCF7 AZTD5; test: as above; format: cell-based; settings: Homo sapiens, MCF7, 144 h, 6 days of treatment
Method: as §1, §2, §3, §4, §5, §6

[9] = system: MCF7 22HTB RPMI p + 4; test: as above; format: cell-based; settings: Homo sapiens, 144 h; MCF7 22HTB RPMI p + 4, 0.1% FCS, 6 days of treatment
Method: as §1, §2, §3, §4, §5, §6

[10] = system: MCF7 RPMI p6-7; test: as above; format: cell-based; settings: Homo sapiens, MCF7, 144 h, 6 days of treatment
Method: as §1, §2, §3, §4, §5, §6

[11] = system: MCF7 p23-25; test: as above; format: cell-based; settings: Homo sapiens, MCF7, 144 h, 6 days of treatment
Method: as §1, §2, §3, §4, §5, §6

[12] = system: MCF7 AZ; test: as above; format: cell-based; settings: Homo sapiens, 144 h, 10% FCS, 6 days of treatment
Method: as §1, §2, §3, §4, §5, §6

Work on CCN(C/C=C\c1ccc(C2CCCCC2)c(Cl)c1)C1CCCCC1 [SR 31747, cis-N-Cyclohexyl-N-ethyl [3-(3-chloro-4-cyclo-hexylphenyl)allyl]amine] yielded an IC50 ([1]; Homo sapiens, LCC2, 144 h, LCC2 p26-27, 0.1 DCC) of 2 nM, an IC50 ([1]; Homo sapiens, LCC2, 144 h, LCC2 p26-27, 5% DCC) of 400 nM and an IC50 ([1]; LCC2 p26-27, 5% DCC) of 300 nM. The activity at 10 pM ([2]; U266, 10 pM) was 100%, the activity at 0.0001 µM ([2]; U266, 100 pM) was 100% and the activity at 0.001 µM ([2]; U266, 1 nM) was 95%. For the same compound, the activity at 0.01 µM ([2]; U266, 10 nM) was 82%, the activity at 0.1 µM ([2]; U266, 100 nM) was 67% and the activity at 1 µM ([2]; U266, 1 μM) was 52%. For the same compound, the activity at 10 µM ([2]; U266, 10 μM) was 11%, the IC50 ([3]; 0.5% FCS) was 400 nM and the IC50 ([3]; 10% FCS) was > 10000 nM. For the same compound, the “activity in the biochemical and pharmacological studies” value [4] was “best activity”, the IC50 [5] was > 100 nM and the IC50 ([6]; Homo sapiens, MDA-MB-231, 144 h, MDA MB231 p131, 0.1% FCS) was 2 nM. It also gave an IC50 ([6]; Homo sapiens, MDA-MB-231, 144 h, MDA MB231 p131, 10% FCS) of 800 nM, an IC50 ([6]; MDA MB231 p131, 10% FCS) of 400 nM and an IC50 ([7]; LCC1 p23-24, 0.1% FCS) of 2 nM. For the same compound, the IC50 ([7]; LCC1 p23-24, 5% FCS) was 1000 nM, the IC50 ([8]; MCF7 AZTD5, 0.1% FCS) was 0.2 nM and the IC50 ([8]; MCF7 AZTD5, 10% FCS) was 600 nM. It also gave an IC50 [9] of 2 nM, an IC50 ([10]; MCF7 RPMI p6-7, 0% FCS) of 3 nM and an IC50 ([10]; MCF7 RPMI p6-7, 0.1% FCS) of 7 nM. For the same compound, the IC50 ([11]; MCF7 p23-25, 0.1% FCS) was 2 nM, the IC50 ([11]; MCF7 p23-25, 0.5% FCS) was 100 nM and the IC50 [12] was > 1000 nM.
